From patent US20160038468A1 (priority 2013, published 2016)
Read-outs that look alike come from different tables or passages of the source.

Tests used:
Assay type in all cases: cell-based
[1] = system: Prevotella amnii; assay: Agar dilution MIC (CLSI), Prevotella amnii vaginal isolates; conditions: for Number of strains with indicated MIC: 33 samples; for MIC: read-out: Minimal Inhibitory Concentration (MIC)
[2] = system: Mobiluncus all species; assay: Agar dilution MIC (CLSI), Mobiluncus all species; conditions: # tested 40
[3] = system: Prevotella timonensis; assay: Agar dilution MIC (CLSI), Prevotella timonensis vaginal isolates; conditions: for MIC: read-out: Minimal Inhibitory Concentration (MIC); for Number of strains with indicated MIC: 33 samples
[4] = Hoylesella timonensis, # tested 33

CCC[C@@H]1C[C@@H](C(=O)N[C@@H]([C@H]2O[C@H](SC)[C@H](O)[C@@H](O)[C@H]2O)[C@H](C)Cl)N(C)C1 [Clindamycin]
1 (3) μg/ml: Resistant ([1]; number (%) of isolates, # tested 33, resistance: rifaximin >32, metronidazole >32, clindamycin >8 μg/ml)
0.03 to 128 µg/mL: MIC Range ([1]; # tested 33)
>128 µg/mL: Minimal Inhibitory Concentration (MIC) ([3]; isolate 301212 10) | Minimal Inhibitory Concentration (MIC) ([3]; isolate 601175 J) | Minimal Inhibitory Concentration (MIC) ([3]; isolate 601214 A) | Minimal Inhibitory Concentration (MIC) ([3]; isolate 601226 C) | Minimal Inhibitory Concentration (MIC) ([3]; isolate 601234 B) | Minimal Inhibitory Concentration (MIC) ([3]; isolate 601293 13)
0.03 µg/mL: MIC ([1]; Prevotella amnii, isolate 601203 4) | MIC ([1]; Prevotella amnii, isolate 601256 11) | MIC ([1]; Prevotella amnii, isolate 601258 25) | MIC ([1]; Prevotella amnii, isolate 601261 E) | MIC ([1]; Prevotella amnii, isolate 601266 20) | MIC ([1]; Prevotella amnii, isolate 601278 10) | MIC ([1]; Prevotella amnii, isolate 601287 HH) | MIC ([1]; Prevotella amnii, isolate 601291 41) | MIC ([1]; Prevotella amnii, isolate 601293 29) | MIC ([1]; Prevotella amnii, isolate 601305 A) | MIC ([1]; Prevotella amnii, isolate 601311 K) | MIC ([1]; Prevotella amnii, isolate 601314 19) | MIC ([1]; Prevotella amnii, isolate 601318 G) | MIC ([1]; Prevotella amnii, isolate 601336 33) | MIC ([1]; Prevotella amnii, isolate 601341 H) | MIC ([1]; Prevotella amnii, isolate 601350 A) | MIC ([1]; Prevotella amnii, isolate 601365 6) | MIC ([1]; Prevotella amnii, isolate 601368 24) | MIC ([1]; Prevotella amnii, isolate 601369 13) | MIC ([1]; Prevotella amnii, isolate 601375 L) | MIC ([1]; Prevotella amnii, isolate 601377 9) | MIC ([1]; Prevotella amnii, isolate 601379 24) | MIC ([1]; Prevotella amnii, isolate 601388 G) | MIC ([1]; Prevotella amnii, isolate 601399 10) | MIC ([1]; Prevotella amnii, isolate 601405 A) | MIC ([1]; Prevotella amnii, isolate 601411 L) | MIC ([1]; Prevotella amnii, isolate 601413 10) | MIC ([1]; Prevotella amnii, isolate 601418 27) | MIC ([1]; Prevotella amnii, isolate 601426 A) | MIC ([1]; Prevotella amnii, isolate 601430 14) | MIC ([1]; Prevotella amnii, isolate 601434 13) | MIC ([1]; Prevotella amnii, isolate 601458 13) | MIC50 ([1]; Prevotella amnii, # tested 33) | MIC90 ([1]; Prevotella amnii, # tested 33) | MIC ([3]; Hoylesella timonensis, isolate 601080 5) | MIC ([3]; Hoylesella timonensis, isolate 601088 15) | MIC ([3]; Hoylesella timonensis, isolate 601093 24) | MIC ([3]; Hoylesella timonensis, isolate 601097 S) | MIC ([3]; Hoylesella timonensis, isolate 601098 B) | MIC ([3]; Hoylesella timonensis, isolate 601170 13) | MIC ([3]; Hoylesella timonensis, isolate 601178 19) | MIC ([3]; Hoylesella timonensis, isolate 601194 9B) | MIC ([3]; Hoylesella timonensis, isolate 601245 16) | MIC ([3]; Hoylesella timonensis, isolate 601252 B) | MIC ([3]; Hoylesella timonensis, isolate 601255 17) | MIC ([3]; Hoylesella timonensis, isolate 601266 18) | MIC ([3]; Hoylesella timonensis, isolate 601281 22) | MIC ([3]; Hoylesella timonensis, isolate 601287 H) | MIC ([3]; Hoylesella timonensis, isolate 601311 B) | MIC ([3]; Hoylesella timonensis, isolate 601388 S) | MIC ([3]; Hoylesella timonensis, isolate 601459 21) | MIC50 [3, 4]
38 (95) μg/ml: Susceptible ([2]; number (%) of isolates)
1: Number of strains with indicated MIC ([1]; MIC […]) | Number of strains with indicated MIC ([3]; MIC […])
0.06 µg/mL: MIC ([3]; Hoylesella timonensis, isolate 601167 13) | MIC ([3]; Hoylesella timonensis, isolate 601278 12)
17: Number of strains with indicated MIC ([3]; MIC 0.03 μg/ml)
32: Number of strains with indicated MIC ([1]; MIC 0.03 μg/ml)
0.25 µg/mL: MIC90 [2]
128 µg/mL: MIC ([1]; Prevotella amnii, isolate 601340 37) | MIC ([3]; Hoylesella timonensis, isolate 601429 11)
0.125 µg/mL: MIC50 [2]
2 (5) μg/ml: Resistant ([2]; number (%) of isolates, resistance: rifaximin >32, metronidazole >32, clindamycin >8 μg/ml)
2: Number of strains with indicated MIC ([3]; MIC 0.06 μg/ml)
13: Number of strains with indicated MIC ([3]; MIC >[…])
> 128 µg/mL: MIC ([3]; Hoylesella timonensis) | MIC90 [3, 4]
32 (97) μg/ml: Susceptible ([1]; number (%) of isolates, # tested 33)
